In a melting point compilation (Tetko et al.):

melting point	SMILES
64 to 66 °C	COc1ncccc1O
179 to 181 °C	CCOC(=O)c1cncnc1O
89 to 91 °C	CC(O)(C(=O)O)c1ccc(F)cc1 (stereo unspecified)
199 to 203 °C	CC1CN(S(=O)(=O)c2ccc(N)cc2)CC(C)O1 (stereo unspecified)
128 to 132 °C	CC(C)C(Nc1ccc(C(F)(F)F)cc1Cl)C(=O)O (stereo unspecified)
118 to 120 °C	Nc1ccc(-c2cn3ccccc3n2)cc1
249 to 251 °C	CN(C)S(=O)(=O)c1ccc(C(=O)O)cc1
206 to 208 °C	O=C(O)CCc1nc(-c2ccccn2)no1
162 to 164 °C	O=C(CCl)N1c2ccccc2SCC1c1ccccc1 (stereo unspecified)
131 to 133 °C	COc1ccc(Cl)cc1CC(=O)O
129 to 131 °C	CN(c1ccc(O)cc1)S(C)(=O)=O
147 to 149 °C	c1ccc(CNc2nc3ccccc3[nH]2)cc1
111 to 113 °C	Cc1ccc(S(=O)(=O)NCCCC(=O)O)cc1C
124 to 126 °C	C=CCNS(=O)(=O)Cc1ccc(N)cc1
97 to 99 °C	COc1ccc(CNC(=O)C(C)Cl)cc1OC (stereo unspecified)
53 to 55 °C	Cc1cccc(C)c1NC(=O)CN1CCNCC1
125 to 127 °C	COc1ccc(F)cc1C(F)(F)C(=O)O
113 to 115 °C	CC1(C2CCCCC2)NC(=O)NC1=O (stereo unspecified)
239 to 241 °C	Clc1cc2c(Cl)ncnc2[nH]1
172 to 174 °C	Cc1nc(C(=O)O)nn1-c1ccccc1
159 to 161 °C	O=C(CCl)c1cc2c3c(c1)CC(=O)N3CCC2
223 to 225 °C	Cc1cc(=O)[nH][nH]1
146 to 148 °C	CN(C)C(=O)N1CCC(C(=O)O)CC1
66 to 68 °C	NC1CCN(c2ccccc2)C1=O (stereo unspecified)

melting point	SMILES
149 to 151 °C	COc1cc(N)c(O)cc1[N+](=O)[O-]
149 to 151 °C	CC(O)c1nc2ccc(Cl)cc2n1C (stereo unspecified)
99 to 101 °C	Nc1nc(C2CC2)c(C(=O)O)s1
126 to 128 °C	COc1cc(N)c(N)cc1OC
89 to 91 °C	Cc1cc(CCC(=O)O)ccc1Br
94 to 96 °C	Cc1cnn(CCC(=O)O)c1
100 to 102 °C	NC1(CO)CCc2ccccc21 (stereo unspecified)
104 to 106 °C	Nc1cc(F)c(Br)cc1N
225 to 227 °C	Cc1ccc(-c2n[nH]c(S)nc2=O)cc1
130 to 132 °C	O=C(O)C1SCCc2ccccc21 (stereo unspecified)
213 to 215 °C	O=C(Nc1ccccc1)c1ccc(Cl)nn1
127 to 129 °C	Clc1nc(Cl)c2cn[nH]c2n1
211 to 213 °C	Cc1nn(C)c2nc(C(C)C)cc(C(=O)O)c12
235 to 237 °C	O=C(O)c1ccc(-n2cccn2)c(F)c1
159 to 161 °C	CCCOc1nc2ccccc2cc1/C=C/C(=O)O
191 to 193 °C	O=C1CN(c2ccccc2)CCCN1
219 to 221 °C	COc1ccc2nc(C3CC3)cc(C(=O)O)c2c1
57 to 59 °C	CC(=O)c1ccc(F)cc1N(C)C
255 to 257 °C	CCOc1cccc2[nH]c(C(=O)O)cc12
157 to 159 °C	Cc1ccc(C)c(-n2nnnc2SCC(=O)O)c1
206 to 208 °C	O=C(O)c1sccc1-c1ccccc1
102 to 104 °C	CC(CC(N)=NO)N(C)C(=O)OC(C)(C)C (stereo unspecified)
49 to 51 °C	OCc1ccc2c(c1)NCC2
82 to 84 °C	COc1ccc(C2C(CO)CC(=O)N2C)cc1 (stereo unspecified)

melting point	SMILES
134 to 136 °C	COc1cc(N)c(C(=O)O)c(Br)c1
114 to 116 °C	Cc1ccc(Oc2ccc(N)cc2)nn1
179 to 181 °C	CC(C)NC(=O)c1cn[nH]c1N
109 to 111 °C	Nc1ccc(-n2ccnc2)cc1C(F)(F)F
180 to 182 °C	CC(NC(=O)c1ccc(S(=O)(=O)N(C)C)cc1)C(=O)O (stereo unspecified)
190 to 195 °C	O=C(O)c1ccc(-c2cc(Cl)cc(Cl)c2)s1
219 to 221 °C	CC(=O)c1ccc(-c2ccc(C(=O)O)o2)cc1
57 to 59 °C	O=C(c1ccccc1)C1CCOCC1
79 to 81 °C	CC(=O)SC(C(=O)O)c1ccccc1 (stereo unspecified)
245 to 247 °C	O=c1c2cc(Cl)cc(Cl)c2nc2n1CCC2
300 to 302 °C	Nc1c(C(=O)O)[nH]c(=O)[nH]c1=O
171 to 173 °C	CCn1c(S)nnc1-c1ccccc1OC
268 to 270 °C	Nc1cc(Br)c(S(N)(=O)=O)cc1[N+](=O)[O-]
59 to 61 °C	O=C(O)CCn1ccc2cc(Cl)ccc21
122 to 124 °C	Nc1ccc(F)c(N2CCCC2=O)c1
71 to 80 °C	CCN1CCc2nc(N)sc2C1
115 to 117 °C	O=S(=O)(Cl)c1ccc(Cl)c2c(Cl)cccc12
65 to 67 °C	Nc1ccccc1S(=O)(=O)C(F)F
59 to 61 °C	Nc1ccc2c(c1)N(CCO)CC2
95 to 97 °C	COc1ccc(Oc2ccc(N)cn2)cc1
50 to 52 °C	COc1c(F)cc(Br)cc1S(=O)(=O)Cl
173 to 175 °C	O=C(O)CN1CCSC1=O
110 to 112 °C	Cc1cc(-n2c(C)cc(C(=O)CCl)c2C)no1
80 to 82 °C	CCOc1nnc(Cl)c2ccccc12

melting point	SMILES
18 to 20 °C	CCn1nnnc1S
137 to 139 °C	Cc1cccc(NC(=O)CCCCl)c1
59 to 61 °C	COCc1nc(CC(=O)O)cs1
59 to 61 °C	CCCOc1ccc(CC(=O)O)cc1OCCC
90 to 92 °C	NCc1ccc(N2CCN(c3ncccn3)CC2)c(F)c1
332 to 334 °C	CC(C)n1c(=O)[nH]c2cc(C(=O)O)ccc2c1=O
179 to 181 °C	Nc1nnc(-c2cccc(OC(F)F)c2)o1
158 to 160 °C	CCc1nc(C)ncc1C(=O)O
110 to 112 °C	Cc1cccc(-c2nc(CC(=O)O)cs2)c1
349 to 351 °C	O=c1[nH]c2ccccc2n2cncc12
122 to 124 °C	CCCCCCOc1ccc(C(=O)O)cc1OC
186 to 188 °C	O=C1CSC(=Cc2nc3ccccc3s2)N1
249 to 251 °C	Cc1nnc2n1CC(C(=O)O)CC2 (stereo unspecified)
75 to 77 °C	CC(C)CN1CCC(C(=O)O)CC1
184 to 186 °C	OC(c1ccccc1)c1nc2cc(Cl)ccc2[nH]1 (stereo unspecified)
222 to 224 °C	Oc1nnc(-c2ccccc2)c(-c2ccccc2)n1
78 to 80 °C	CNC(=O)CNc1cccc(OC)c1
134 to 136 °C	Clc1cc(N2CCSCC2)ncn1
68 to 70 °C	CCOC(=O)C(=O)CC(=O)c1ccc(Cl)cc1Cl
165 to 167 °C	Clc1cc(C2=NCCN2)ccn1
99 to 101 °C	COc1nnc(Cl)c2ccccc12
45 to 47 °C	Fc1cccc2c1CCCN2
91 to 93 °C	N#Cc1ccccc1CN1CCOC1=O
177 to 179 °C	Cn1cnc([N+](=O)[O-])c1Br

melting point	SMILES
87 to 89 °C	N#Cc1ccc2ocnc2c1
159 to 161 °C	CON=C(C(=O)N[C@@H]1C(=O)N2C(C(=O)O)=C(CSc3nnnn3C)CS[C@H]12)c1csc(N)n1
76 to 78 °C	N#Cc1ccc(CN2CCc3ccccc32)cc1
219 to 221 °C	CC(C)(C)n1nc[nH]c1=O
160 to 162 °C	O=c1oc2ccccc2c(Cl)c1[N+](=O)[O-]
72 to 74 °C	NCc1ccc(Cn2cnc3ccccc32)cc1
96 to 98 °C	O=C1CCCCN1c1ccc(Br)cc1F
168 to 170 °C	NS(=O)(=O)c1ccc2c(c1)oc(=O)n2CC(=O)O
47 to 49 °C	O=[N+]([O-])c1cc(Br)cc(S(=O)(=O)Cl)c1
124 to 126 °C	O=c1[nH]c(CCl)nc2scc(-c3ccc(Cl)cc3)c12
98 to 100 °C	O=S(=O)(c1cccs1)N1CCNCC1
110 to 112 °C	Nc1c(Cl)ncnc1-n1cccn1
341 to 343 °C	Cc1nc(=O)c2cnn(-c3ccc([N+](=O)[O-])cc3)c2[nH]1
159 to 161 °C	O=C1CCCN1c1ccc(O)cc1
346 to 348 °C	CNc1cc(C(=O)O)c2ccccc2n1
189 to 191 °C	NC(=S)c1ccc(N)cc1
43 to 45 °C	COc1nc(Cl)c(C=O)s1
131 to 133 °C	O=C(O)CCNc1ncc(C(F)(F)F)cc1Cl
49 to 51 °C	O=S(=O)(Cl)C1CCCCC1O (stereo unspecified)
214 to 216 °C	CC(C)(C)OC(=O)N1CCC2(C1)NC(=O)NC2=O (stereo unspecified)
151 to 153 °C	CCc1ccc(Nc2nnc(S)s2)cc1
129 to 131 °C	O=C(O)c1cc[nH]c1
64 to 66 °C	CC(=O)c1cccc(-c2ccncc2)c1
216 to 218 °C	Nc1nc(-c2ccc(NC(=O)c3ccccc3)cc2)cs1

melting point	SMILES
244 to 246 °C	Cn1c(=O)c2sccc2n2c(CCl)nnc12
216 to 218 °C	COc1ccc(CCc2nnc(N)o2)cc1
171 to 173 °C	CCCc1nc2c(c(=O)[nH]1)CCN(Cc1ccccc1)C2
71 to 73 °C	Nc1ccc2c(c1)CCO2
147 to 149 °C	Nc1sc2c(c1C(=O)O)CCC2
208 to 210 °C	CCn1c(S)nnc1CCC(N)=O
199 to 201 °C	NC(=O)c1cc(N)nc2ccccc12
112 to 114 °C	Nc1cccc(-n2ccnc2)c1
30 to 32 °C	OCc1cccc(OCC(F)(F)F)c1
120 to 122 °C	CN(Cc1ccccc1)C(=O)NCCC(=O)O
63 to 65 °C	CCCc1nnn[nH]1
258 to 260 °C	NS(=O)(=O)c1ccc2c(c1)C(=O)C(=O)N2
96 to 98 °C	Nc1cc([N+](=O)[O-])ccn1
249 to 251 °C	Nc1nc(=O)cn[nH]1
41 to 43 °C	COC(=O)c1ccc(F)cc1S
203 to 205 °C	CC1CNc2ccccc2NC1=O (stereo unspecified)
61 to 63 °C	CCOC(=O)CN(CCC#N)c1ccc(OC)cc1
127 to 131 °C	CC(=O)c1ccc(N2CCCC2=O)cc1
266 to 268 °C	Cc1cccc(C)c1Nc1nnc(S)s1
88 to 90 °C	Nc1ccn(Cc2ccccn2)n1
88 to 90 °C	Cc1cc(C(=O)CCl)c(C)n1CC1CCCO1 (stereo unspecified)
222 to 224 °C	CC(C)(C)C(=O)Nc1nc(CC(=O)O)cs1
173 to 175 °C	NNc1oc(-c2ccccc2)nc1C(N)=O

SMILES	melting point
Cc1nn(C2CCOC2)cc1C(=O)O (stereo unspecified)	163 to 165 °C
CC1(C)COC2(CCNCC2)OC1	62 to 64 °C
Cc1ccc(-c2nn(Cc3ccccc3)cc2C(=O)O)cc1C	155 to 157 °C
